Assay results reported in US20170266269A1, “METHODS OF IDENTIFYING ANTIGENS FOR VACCINES” (UNIVERSITY OF WASHINGTON THROUGH ITS CENTER FOR …, priority 2014, published 2017).

Legend:
[1] = system: human peripheral blood mononuclear cells (PBMC); assay: IL-10 ELISPOT of human PBMC with epitope peptides; type: cell-based; settings: CD105 and HIF1α peptides
Source text: (§1) A plurality of immunological assays may be used with the methods or processes described herein to test at least one peptides of putative epitopes or nucleic acids encoding peptides of putative epitopes to determine if the peptide of the putative epitope elicits an immune response, often the sub-type of the immune response may be determined, often the immunologic assay may be an ELISPOT assay, an ELISA assay, a multiplex assay or the like. For example, a suitable immunologic assay may include performing an ELISPOT assay using cells derived from donors. The ELISPOT assay may include isolating peripheral blood mononuclear cells (PBMC) from at least 10, preferably at least 40, subjects, often the subjects are human donors. The amount of at least one cytokine production in cells following administration of the peptides of putative epitopes may be determined by the ELISPOT assay. The at least one cytokine may be IFNγ and/or IL-10 such that data indicating cytokine production may represent a positive or a negative response of cells to the peptide sequence of the putative epitope. In some cases, positive responses may have a statistically significant difference (p<0.05) between a mean number of spots from five replicates in the experimental wells and the mean number from no antigen control wells. In other cases, negative responses may not have a statistically significant difference (p<0.05) between a mean number of spots from five replicates in the experimental wells and the mean number from no antigen control wells.
(§2) This example describes the identification of unique and discrete amino acid sequences of antigenic epitopes from breast cancer stem cell and epithelial mesenchymal transformation peptides CD105 and HIF-1a, both of which are promiscuous MHC class II binders and unexpectedly stimulate high (magnitude and incidence) interferon gamma (IFNγ) and low or no interleukin (IL)-10 responses from human peripheral blood mononuclear cells (PBMC). CD105 and HIF1α have been juxtaposed to allow construction of extended epitope sequences for inclusion in either a peptide or DNA plasmid-based multi-antigen polyepitope CD4+ T-cell vaccine targeting breast cancer stem cell and epithelial mesenchymal transformation antigens in cancer patients.
(§3) […] peptides, predicted to bind promiscuously to human MHCII, were selected using web-based algorithms according to the methods described herein. Peripheral blood mononuclear cells (PBMC) from 20 female breast cancer patients were cryopreserved and evaluated by ELISPOT for antigen specific IFNγ or IL-10 secretion, according to our published methods. […] Data is reported as the mean number of spots for each experimental antigen minus the mean number of spots detected in no antigen control wells (corrected spots per well: CSPW). Positive responses were defined by a statistically significant difference (p<0.05) between the mean number of spots from five replicates in the experimental wells and the mean number from no antigen control wells for an individual (see FIG. 15).
(§4) The unpaired, two-tailed Student's t-test, Fischer's exact test or X^2 test was used to evaluate differences between groups. […] All statistical analyses were performed using GraphPad Prism 5.04 (e.g., GraphPad Software).

[2] = system: human peripheral blood mononuclear cells (PBMC); assay: IFNγ ELISPOT of human PBMC with epitope peptides; type: cell-based; settings: CD105 and HIF1α peptides
Source text: as §1, §2, §3, §4

Substance | IL-10 response [1] | IFNγ response [2]
LHLAYNSSLVTFQEP [CD105 p116-130] | low or no | strong
VLLVLSVNSSVFLHLQALGI [CD105 p 96-114] | low or no | strong
GHKEAHILRVLPGHSAGPRTVTV [CD105 p214-236] | low or no | strong
MRLTISYLRVRKLLDAGDLDIED [HIF1α p60-82] | no or low | strong
YELAHQLPLPHNVSSH [HIF1α p38-53] | no or low | strong
CD105 p626-642: peptide at the C-terminus of CD105 (VVAVAAPASSESSSTNH; UniProt P17813 626-642, looked up, fragment) | low or no | strong
